These results are taken from patent publication US20050059588A1, “Peptides which generate antibodies resulting in lysis of pathologically adherent erythrocytes” (REGENTS OF THE UNIVERSITY OF CALIFORNIA, priority 2003, published 2005).

The test system of data set [1] is CD36. The experiment in a line: Cytoadherence assay: binding of infected erythrocytes made from AE1-modified erythrocytes to immobilized CD36. It is filed as cell-based, human. The following applies: for binding of treated IEs to CD36, in words: immobilized CD36; for percentage of bound IEs/mm^2 as compared to untreated cells, CD36: uninfected erythrocytes treated (0.5 mg/ml chymotrypsin, 100 μM DIDS or 0.25 mg/ml FMA), then infected, harvested after 40 hr, mean ±SD of triplicate. Here is the method:
(§1) Uninfected erythrocytes were treated with either 0.25 mg/ml fluorescein maleimide (FMA) (1 hr at 25° C.), 100 μM DIDS (1 hr at 37° C.) or with 0.5 mg/ml chymotrypsin (0.5 hr at 37° C.). Modified erythrocytes were infected and after 40 hr, mature stages were harvested and a standard cytoadherence assay using CD36 or TSP immobilized on slides was carried out. The numbers are the percentage of bound IEs/mm^2 as compared to untreated cells. Each value represents the mean ±SD of triplicate determinations.
(§2) Partially purified CD36 (CD36 fraction) was obtained from human platelets essentially by the method of Tandon et al., J. Biol Chem, 264:7570 (1989). However, the last purification step, using Ultrogel AcA-44, was omitted. TSP was purified as described in Layler et al., J Biol Chem, 253:8609 (1978). To remove excess amount of Triton X-100 in CD36 solution, 5 ml of a CD36 solution containing 0.1% Triton X-100 (initial concentration 268 μg protein/ml) was incubated with 0.5 g of SM-2 beads (Bio-Rad, Hercules, Calif.) at room temperature for 2 h and dialyzed against 500 ml of distilled water. Five microliters of the dialyzed solution was mounted onto multi-well glass slides, and incubated at 4° C. overnight. To immobilize TSP, 5 μl of TSP solution (50 μg/ml in 50 mM Bis-Tris, 100 mM NaCl, 25 mM calcium lactate, pH 7.4 (BTC)) was spotted on plastic slides (Permanox® plastic, Nunc, Neperville, Ill.) and incubated at 4° C. overnight. After removal of the solution by gentle aspiration, CD36- and TSP-immobilized spots were blocked with 1% BSA in phosphate buffered saline (PBS) at room temperature for 1 h.
(§3) Cytoadherence assays were performed as described in Crandall et al., Exp Parasitol, 73:362 (1991) (“Crandall 1991”). In the case of inhibition assay using peptides, the spots of immobilized protein were pretreated with 10 μl of peptide solution (200 μg/ml) in Bis-Tris buffer (50 mM Bis-Tris, 100 mM NaCl, 2 mM CaCl2, pH 6.6 for CD36; 50 mM Bis-Tris, 100 mM NaCl, 2 mM CaCl2, pH 7.4 for 677 cells; BTC for TSP) at 37° C. for 1 h. After removal of the peptide solution, the slides were placed in individual compartments of a partitioned plastic box containing 7 ml Bis-Tris buffer. Fifty microliters of packed red cells (5-10% parasitemia) was added to each compartment of the plastic box. After incubation at 37° C. for 90 min with gentle rocking, the red cell suspension was carefully aspirated. The slides were rinsed by adding 7 ml of the buffer and 5 min of rocking after which time the buffer was aspirated. The slides were washed three times, fixed, and stained as described in Crandall 1991. The number of bound infected red cells/mm^2 area of immobilized protein was counted by light microscopy.

Another data set has as its system TSP. The experiment in a line: Cytoadherence assay: binding of infected erythrocytes made from AE1-modified erythrocytes to immobilized TSP. The following applies: for binding of treated IEs to TSP, in words: immobilized TSP; for percentage of bound IEs/mm^2 as compared to untreated cells, TSP: uninfected erythrocytes treated (0.5 mg/ml chymotrypsin, 100 μM DIDS or 0.25 mg/ml FMA), then infected, harvested after 40 hr, mean ±SD of triplicate. It is filed as cell-based. Here is the method: as §1, §2, §3

Data set [2] concerns the target T1, CD36 transfected CHO cells (Homo sapiens, UniProt P16671).
T1 construct: expressed in transfected cells; host or cells: CHO cells
The experiment in a line: Interaction of biotin labeled DBR peptide with CD36 transfected CHO cells. It is filed as binding. The following applies: 40 μg/ml biotin labeled peptide, 1 hour at 37° C. Here is the method: FIG. 2. Interaction of DBR peptide with CD36 transfected CHO cells. Cells were incubated for 1 hour at 37° C. with 40 μg/ml biotin labeled peptide, followed by 20 μg/ml Alexa-conjugated streptavidin.
To confirm that the DIDS binding region (DBR) of AE1 is involved in IE adhesion, two different kinds of in vitro assays were carried out.

The target in data set [3] is T2, CD36 (Homo sapiens, UniProt P16671).
T2 construct: Partially purified CD36 (CD36 fraction) was obtained from human platelets; from tissue; host or cells: human platelets
Briefly: Competitive binding assay: inhibition of IE binding to immobilized CD36 by DBR peptide. It is filed as cell-based. The following applies: immobilized CD36 incubated with peptide before cytoadherence assay. Here is the method:
FIG. 3. […] Immobilized CD36 was incubated with the indicated concentrations of DBR peptide, and then a cytoadherence assay was conducted as shown in the legend of Table 1. Each value represents the mean ±SD of triplicate determinations.
as §2, with “After removal of the solution by gentle aspiration, CD36- and TSP-immobilized spots were blocked with 1% BSA in phosphate buffered saline (PBS) at room temperature for 1 h.” left out
Cytoadherence assays were performed as described in Crandall et al., Exp Parasitol, 73:362 (1991) (“Crandall 1991”). […] The number of bound infected red cells/mm^2 area of immobilized protein was counted by light microscopy.

Data set [4] has as its system immunoglobulins from individuals living in a malaria endemic region. The experiment in a line: ELISA: binding of IE-surface-eluted human immunoglobulins to immobilized DBR peptide. The following applies: surface bound immunoglobulins eluted from IEs. Here is the method:
FIG. 4. Recognition of the DBR peptide by immunoglobulins from individuals living in a malaria endemic region (“immunes”). Human sera from either control or “immunes” were added to human erythrocytes infected with P. falciparum (“IEs”) and after incubation, the surface bound immunoglobulins were eluted using isotonic glycine buffer pH 3.0. Biotin labeled peptides were immobilized on 96 well plates using streptavidin, and the specific binding of the surface eluted immunoglobulins to the peptides was determined using alkaline phosphatase conjugated anti-human IgG.
To explore whether DBR is exposed as a consequence of parasite development, sera from individuals living in a region where malaria is endemic or from a control group was incubated with intact live IEs and the surface bound immunoglobulins eluted by a low pH treatment.

Data set [5] in a line: Tolerability in animals immunized with the peptide. It is filed as in vivo, rabbit.

T2 sequence (P16671 whole entry): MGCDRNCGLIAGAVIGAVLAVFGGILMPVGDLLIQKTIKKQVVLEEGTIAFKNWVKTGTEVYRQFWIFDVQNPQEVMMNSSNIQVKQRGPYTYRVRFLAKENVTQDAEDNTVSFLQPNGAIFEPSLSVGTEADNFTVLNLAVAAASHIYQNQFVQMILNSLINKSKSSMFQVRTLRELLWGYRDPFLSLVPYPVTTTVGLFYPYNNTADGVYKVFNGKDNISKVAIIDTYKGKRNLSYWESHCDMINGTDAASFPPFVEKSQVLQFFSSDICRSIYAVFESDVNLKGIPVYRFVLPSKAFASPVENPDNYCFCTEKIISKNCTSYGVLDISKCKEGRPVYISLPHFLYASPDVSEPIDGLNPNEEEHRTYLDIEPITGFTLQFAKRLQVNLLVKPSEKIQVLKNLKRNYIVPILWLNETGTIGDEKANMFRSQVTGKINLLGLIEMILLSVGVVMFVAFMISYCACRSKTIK
T1 sequence (P16671 whole entry): as above

As for `O=S(=O)(O)c1cc(N=C=S)ccc1C=Cc1ccc(N=C=S)cc1S(=O)(=O)O` [DIDS, 4,4′-diisothiocyanatostilbene-2,2′-disulfonic acid], in the data set on CD36 [1], the “binding of treated IEs to CD36, in words” value is “lower binding to CD36” and the “percentage of bound IEs/mm^2 as compared to untreated cells, CD36” value stood at 33.2 ± 4.1 percentage. For the same molecule, in the data set on TSP, the “binding of treated IEs to TSP, in words” value is listed as “not to TSP” and the “percentage of bound IEs/mm^2 as compared to untreated cells, TSP” value came to 93.5 ± 35.9 percentage.

With `O=C1OC2(c3ccc(O)cc3Oc3cc(O)ccc32)c2ccc(N3C(=O)C=CC3=O)cc21` [FMA, Fluorescein maleimide], in the data set on CD36 [1], the “binding of treated IEs to CD36, in words” value is listed as “did not reduce the binding” and the “percentage of bound IEs/mm^2 as compared to untreated cells, CD36” value was 135.1 ± 12.9 percentage. In addition, in the data set on TSP, the “binding of treated IEs to TSP, in words” value is “did not reduce the binding” and the “percentage of bound IEs/mm^2 as compared to untreated cells, TSP” value stood at 180.9 ± 26.0 percentage.

In the case of Chymotrypsin, in the data set with CD36 [1], the “binding of treated IEs to CD36, in words” value was “significant reduction” and the “percentage of bound IEs/mm^2 as compared to untreated cells, CD36” value is on record as 10.2 + 17.5 percentage. Moreover, in the data set with TSP, the “binding of treated IEs to TSP, in words” value is “largely unaffected” and the “percentage of bound IEs/mm^2 as compared to untreated cells, TSP” value turned out to be 81.0 ± 17.7 percentage.

On to YETFSKLIKIFQDH [DBR peptide], for which the “interaction with CD36 transfected CHO cells” value in data set [2] is “interacted with high affinity and specificity”. In addition, the figures for the “inhibition of IE binding to immobilized CD36” value in the data set with CD36 [3] and with CD36 [3] (listed as DBR peptides) were “Concentration dependent inhibition” and “inhibited the binding”, respectively. In data set [4], the “recognition of the DBR by immunoglobulins of individuals living in an endemic area” value is on record as “strong humoral immune response”. In addition, the “anemia or other ill effects in immunized animals” value in data set [5] is recorded as “no anemia or other ill effects”.
